How the values were obtained:
liver cancer = details: phase III of human clinical trials; cited from earlier work
[1] = test system: human liver tumor cell line ITRI-H28; assay: Cell viability of ITRI-H28 cells after Sorafenib treatment (Alarmablue assay); assay type: cell-based; details: 48-hour treating period, P value 0.02, read-out: half maximal inhibitory concentration (IC50)
Protocol: In the experiment, a plurality of plates are prepared with 1×10^4 ITRI-H28 cells seeded respectively thereon and divided into a plurality of groups, and the groups are treated with different concentrations of Sorafenib, such as 30, 15, 7.5, 3.75, 1.88, and 0.94 uM. Next, after a 48-hour treating period, a cell viability of each of the groups is measured by an Alarmablue measurement assay, and results are shown in FIG. 3.
A calculation is done according to the results of FIG. 3, a half maximal inhibitory concentration (IC50) of Sorafenib in the ITRI-H28 cell line are about 2.79±0.41, and a statistical P value is 0.02. According to the above results, the human liver tumor cell line ITRI-H28 has a susceptibility to the HCV-related HCC drug, which is able to use in a HCV-related HCC drug screening. Furthermore, according to the above experiments, the human liver tumor cell line ITRI-H28 has cancer cell properties, which can be used widely in a liver drug screening.

IC50 [1]: ~2790 nM
Compound: CNC(=O)c1cc(Oc2ccc(NC(=O)Nc3ccc(Cl)c(C(F)(F)F)c3)cc2)ccn1 [Sorafenib]
extension of patient survival time (liver cancer): three

— patent US20150159141A1, “ISOLATED HUMAN LIVER TUMOR CELL LINE AND METHOD OF AGENT SCREENING” (Industrial Technology Research Institute, priority 2013, published 2015)
